# Article PMC10552749, “Anti-methicillin-resistant Staphylococcus aureus and antibiofilm activity of new peptides produced by a Brevibacillus strain” (PeerJ, 2023)
# Several values for one entry are separate records, joined by “and”; a condition that tells them apart may be missing. Equal values may be shown once. Where no end group is shown, it is not given here.
# Experiments:
# S. aureus TISTR 517 [1] = assay: Inhibition of biofilm formation (crystal violet); type: cell-based; conditions: Staphylococcus aureus, TISTR517, 48 h, read-out: IC50 of biofilm formation
# Method: (§1) The cells were standardized using the same medium to achieve 1 × 10^8 CFU/mL. The cell suspension was mixed with peptide at various concentrations (0.5–256 µg/mL) in a 96-well plate. The plates were then incubated at 37 °C for 48 h. Then, the planktonic bacteria cells were removed from the plates by washing them with PBS. Thereafter, 100 µL of methanol was added to the plate to fix the biofilm-associated cells. The plates were dried and stained with 0.1% crystal violet for 15 min before rinsing twice with PBS. A total of 100 μL of […] was finally added to resolubilize the stained crystal violet. The plates were incubated at 37 °C for 30 min, and the supernatants were transferred to a new 96-well plate. The absorbance at 570 nm was measured by a microplate reader (Thermo Fisher Scientific Inc., Waltham, MA, USA) to determine the biofilm formation. […] One-way ANOVA was used to analyze the significant differences among treated samples compared to the untreated controls at various p-values.
# [2] = test system: S. aureus TISTR 517 and MRSA isolate 2468; assay: Biofilm eradication assay, statements for both tested bacteria; type: cell-based, Staphylococcus aureus
# Method: (§2) The bacteria were standardized to achieve 1 × 10^8 CFU/mL, and 100 µL of cell suspension was transferred to a 96-well microplate. The plates were incubated at 37 °C for 48 h for biofilm formation. The free bacteria cells were removed from the plates by washing them with PBS. Peptide solutions at the concentrations (0.5–256 µg/mL) were added to the microplate and incubated at 37 °C for 24 h. Subsequently, PBS was used to rewash the plate, and 100 µL of PBS was loaded into each well. The plate was sonicated for 30 min at room temperature, and the samples were taken and made a ten-fold serial dilution. A total of 10 µL of the diluted samples was plated on MH agar for colony count. Vancomycin and untreated samples were used as the positive and negative controls. Only SCD media without bacteria was used as the blank ([Yuan et al., 2019]). The significant difference was evaluated by one-way ANOVA (p-value < 0.05) compared to untreated controls.
# [3] = test system: S. aureus TISTR 517 and MRSA isolate 142, 1096, and 2468; assay: microbe, parasite or virus in culture; type: cell-based, Staphylococcus aureus
# Method: (§3) The assay was conducted in accordance with the guideline of the Clinical and Laboratory Standard Institute (CLSI). […] The cell suspension was prepared in a 20-fold dilution using Cation-Adjusted Mueller-Hinton broth (CAHMB) as a diluent. A total of 10 µL of the diluted bacterial preparation and 100 µL of pure substances (0.25–64 µg/mL) were loaded into the 96-well plates. The plates were incubated at 37 °C for 24 h. Control wells were performed for broth (CAMHB) and inoculum. Vancomycin was tested as a control drug. The experiment was performed in triplicate for each tested strain.
# S. aureus TISTR 517 [4] = assay: microbe, parasite or virus in culture; type: cell-based, Staphylococcus aureus
# Method: (§4) Wells of 9 mm were punched on the solid media surface by a sterile tip, and 100 µL of purified substance was loaded before incubating the plates at 37 °C for 24 h. […] The result was collected from three independent experiments in which the diameter of the zone of inhibition was measured by a vernier caliper and reported as mean ± SD ([Lei et al., 2020]). The significant difference was determined by Student’s t-test at a p-value of less than 0.05.
# MRSA isolate 142 [5] = assay: microbe, parasite or virus in culture; type: cell-based, Staphylococcus aureus
# Method: as §4
# MRSA isolate 1096 [6] = assay: microbe, parasite or virus in culture; type: cell-based, Staphylococcus aureus
# Method: as §4
# MRSA isolate 2468 [7] = assay: microbe, parasite or virus in culture; type: cell-based, Staphylococcus aureus
# Method: as §4
# MRSA isolate 2468 [8] = assay: Biofilm eradication assay; type: cell-based, Staphylococcus aureus; conditions: vs untreated, p-value < 0.05
# Method: as §2
# S. aureus TISTR 517 [9] = assay: microbe, parasite or virus in culture; type: cell-based; conditions: Staphylococcus aureus, TISTR517, 24 h
# Method: as §3
# MRSA isolate 142 [10] = assay: microbe, parasite or virus in culture; type: cell-based; conditions: Staphylococcus aureus, 24 h
# Method: as §3
# MRSA isolate 1096 [11] = assay: microbe, parasite or virus in culture; type: cell-based; conditions: Staphylococcus aureus, 24 h
# Method: as §3
# MRSA isolate 2468 [12] = assay: microbe, parasite or virus in culture; type: cell-based; conditions: Staphylococcus aureus, 24 h
# Method: as §3
# MRSA isolate 2468 [13] = assay: Inhibition of biofilm formation (crystal violet); type: cell-based, Staphylococcus aureus
# Method: as §1
# [14] = test system: S. aureus and MRSA biofilms; conditions: statically grown biofilms of S. aureus and MRSA; ref Zapotoczna et al., 2017; cited from earlier work
# Excerpt: Biofilm is an important virulence mechanism in many bacterial pathogens. The cells irreversibly adhere to the biotic and abiotic surfaces and are surrounded by an extracellular matrix in response to stress conditions ([Flemming & Wuertz, 2019]). […] S. aureus and MRSA develop a biofilm to decrease or prevent the diffusion of antimicrobial drugs into the cells, resulting in more drug r ...
# [15] = ref Baczek, Walijewski & Kaliszan, 2008, cited from earlier work
# human erythrocytes = type: cell-based
# Method: The Ethics Committee in Human Research at Walailak University has approved this study (WUEC-22-242-01; 15 August 2022). The written consent was obtained from a subject involved in the research. Whole blood (5 mL) was collected from a human volunteer and centrifuged at 700× g for 8 min. The pellets were washed 3 times with PBS before diluting to obtain 0.5% erythrocyte suspension. A total of 50 µL of erythrocytes was added to a 96-well plate, and the purified peptide in PBS (50 μL) was mixed to achieve the final peptide concentration of 1, 2, 4, 8, 16, 32, 64, 128, 256, and 512 µg/mL. The mixtures were then incubated at 37 °C for 1 h. They were further centrifuged at 1,000× g for 10 min, and the supernatant was loaded into a microplate before measuring the absorbance at 540 nm. The positive and negative controls were 1% Triton X-100 and untreated samples, respectively, while PBS was used as a blank control. This assay was carried out in three independent experiments. The percent hemolysis was calculated by the following equation:
# %Hemolysis=[Asam−Ablank]/[Apos−Ablank]×100 where Asam is the sample absorbance, Apos and Ablank are the absorbance of positive and blank controls, respectively ([Oddo & Hansen, 2017]).
# [16] = Vancomycin (30 μg), mean ± SD, n = 3
# [17] = Staphylococcus aureus, read-out: Inhibition zone
molecule,measurement,setting,value
CN[C@H](CC(C)C)C(=O)N[C@H]1C(=O)N[C@@H](CC(N)=O)C(=O)N[C@H]2C(=O)N[C@H]3C(=O)N[C@H](C(=O)N[C@H](C(=O)O)c4cc(O)cc(O)c4-c4cc3ccc4O)[C@H](O)c3ccc(c(Cl)c3)Oc3cc2cc(c3O[C@@H]2O[C@H](CO)[C@@H](O)[C@H](O)[C@H]2O[C@H]2C[C@](C)(N)[C@H](O)[C@H](C)O2)Oc2ccc(cc2Cl)[C@H]1O [Vancomycin],IC50,S. aureus TISTR 517 [1],4.84 µg/mL
same,Concentration to destroy mature biofilms as multiple of MIC,[2]; 128 μg/mL relative to MIC,64 × MIC
same,Concentration that completely eradicated biofilm (killed persistent cells),"[2]; 48 h preformed biofilms, 24 h treatment, both bacteria",128 µg/mL
same,MBC,[3]; Staphylococcus aureus,2 µg/mL
same,MIC,[3]; Staphylococcus aureus,2 µg/mL and 1.38 µM
same,MBC,[3]; against all tested bacteria,2 µg/mL
same,MIC,[3]; against all tested bacteria,2 µg/mL
same,zone of inhibition at 30 µg/disc,"S. aureus TISTR 517 [4]; Staphylococcus aureus, TISTR517, read-out: Inhibition zone",20.7 ± 0.23 mm
same,Inhibition zone,S. aureus TISTR 517 [4]; [16],20.73 mm
same,zone of inhibition at 30 µg/disc,MRSA isolate 142 [5]; [17],23.5 ± 0.59 mm
same,Inhibition zone,MRSA isolate 142 [5]; [16],23.47 mm
same,zone of inhibition at 30 µg/disc,MRSA isolate 1096 [6]; [17],23.1 ± 0.36 mm
same,Inhibition zone,MRSA isolate 1096 [6]; [16],23.10 mm
same,zone of inhibition at 30 µg/disc,MRSA isolate 2468 [7]; [17],23.9 ± 0.1 mm
same,Inhibition zone,MRSA isolate 2468 [7]; [16],23.90 mm
same,Concentration that significantly reduced persistent cells in biofilm,MRSA isolate 2468 [8],64 µg/mL
same,MBC,S. aureus TISTR 517 [9],2 µg/mL
same,MIC,S. aureus TISTR 517 [9],2 µg/mL
same,MBC,MRSA isolate 142 [10],2 µg/mL
same,MIC,MRSA isolate 142 [10],2 µg/mL
same,MBC,MRSA isolate 1096 [11],2 µg/mL
same,MIC,MRSA isolate 1096 [11],2 µg/mL
same,MBC,MRSA isolate 2468 [12],2 µg/mL
same,MIC,MRSA isolate 2468 [12],2 µg/mL
same,Biofilm formation (% of untreated) after treatment,"MRSA isolate 2468 [13]; 4 μg/mL or 2× MIC, 37 °C 48 h, crystal violet, A570, mean ± SD of three experiments",68.25 ± 4.21%
same,IC50,"MRSA isolate 2468 [13]; Staphylococcus aureus, 48 h, read-out: IC50 of biofilm formation",5.91 µg/mL
same,Concentration for half-maximal inhibition of biofilms,[14],16.0 to 68.2 µg/mL
DAEFGHDSG-NH2 [literature model peptide for RPC retention],RPC retention time,[15]; isocratic elution by 0.1% TFA and ACN,3.75 min
same,pI,[15],4.02
MFLVVKVLKYVV [BrSPR19-P2],Therapeutic index (TI) of hemolysis / hemolysis index threshold,human erythrocytes,32
